Measured values taken from patent publication US20140248212A1, “NON-IMMUNOGENIC POSITRON EMISSION TOMOGRAPHY REPORTER GENE SYSTEMS” (THE REGENTS OF THE UNIVERSITY OF CALIFORNIA, priority 2011, published 2014).
Entries after “also recorded” stand apart in the source; their conditions may differ.

Assays:
[1] = test system: L1210 tumors expressing TK2-N93D/L109F; assay: microPET/CT of SCID mice bearing L1210-PRG tumors (TK2-N93D/L109F); assay type: in vivo
Description: (§1) Animal studies were approved and carried out according to specific guidelines. C57/BL6 mice were injected with the indicated probe and underwent micro-PET/CT analyses at 1- and 3-h post probe injection (Inveon, Siemens Medical Solutions USA Inc.; microCAT; Imtek Inc.). For tumor imaging studies, SCID mice were injected subcutaneously on day −7 in the right and left flanks with 1×10^6 L1210-PRG-expressing cells in 50% v/v phosphate-buffered saline and 50% v/v Matrigel™ (BD Biosciences). For imaging experiments, mice were kept warm and under gas anesthesia (2% v/v isoflurane) and were injected intravenously with 200 μCi of ^18F-labeled probes. A 3-h interval was allowed between probe administration and microPET/CT scanning Static microPET images were acquired for 600 s. Image data were evaluated in three-dimensional histograms and reconstructed with a zoom factor of 2.1 using three-dimensional ordered set expectation maximization (OSEM) with 2 iterations followed by MAP (maximum a posteriori) reconstruction with 18 iterations (beta=0.1). Images were analyzed using OsiriX Imaging Software Version 3.8.
Mice implanted with L1210 cells expressing TK2-based PRGs were scanned by microPET/CT using L-^18F-FMAU (FIG. 30A). For comparison, mice implanted with L1210 cells expressing HSV1-sr39tk were scanned by microPET/CT using ^18F-FHBG (FIG. 30B).

[2] = test system: L1210 tumors expressing TK2-N93D; assay: microPET/CT of SCID mice bearing L1210-PRG tumors (TK2-N93D); assay type: in vivo; settings: for in vivo L-18F-FMAU uptake compared with WT TK2-expressing tumors: 3 h post-injection
From the text: To compare TK2, TK2-N93D and HSV1-sr39tk in vivo, PRG-expressing L1210 cells were implanted subcutaneously in SCID mice that were then scanned with L-[^18F]FMAU (FIG. 10A) and [^18F]FHBG (FIG. 10C) on consecutive days. […] Signals obtained with sr39tk were slightly higher than those obtained with the human TK2-N93D PRG (the difference was not statistically significant). […] L-[^18F]FMAU accumulation in TK2-N93D transduced tumors was ˜20 times higher than the accumulation in tumors transduced with the control (eYFP only) vector. While this ratio is higher than the 6.67 ratio reported for WT TK2 as a PRG with D-[^18F]FEAU as the PRP (see, e.g. Ponomarev, V., et al. J Nucl Med 48:819-826, 2007), the HSV1-sr39tk/[^18F]FHBG combination still outperforms the TK2-N93D/L-[^18F]FMAU combination by ˜2-fold. The significance of the 2-fold difference for the sensitivity of the new TK2-N93D PRG can be further investigated in the animal models discussed below (see, e.g. Gerth, M. L., et al. Biochem Biophys Res Commun 354:802-807, 2007; Liu, L., et al. Nucleic Acids Res 37:4472-4481, 2009; Iyidogan, P., et al. Biochemistry 47:4711-4720, 2008; Lutz, S., et al. Chimia (Aarau) 63:737-744 2009).
as §1

[3] = test system: TK2-L109F-expressing L1210 cells; assay: L-18F-FMAU uptake assay, transduced L1210 cells (TK2-L109F); assay type: cell-based, murine; settings: in the presence of 5 μM D-dT
Description: The L1210 cell line (see, e.g. Jordheim, L. P., et al. (2004) Clin. Cancer Res. 10, 5614-5621) was a gift. Cells were cultured at 5% v/v CO2 and 37° C. in RPMI supplemented with 5% v/v FCS. Murine stem cell virus (pMSCV)-based helper-free retroviruses encoding the TK2 mutants (or sr39tk), an internal ribosomal entry site, and the yellow fluorescent protein (YFP) were produced by transient co-transfection of the amphotrophic retrovirus packaging cell line Phoenix (American Type Culture Collection, SD 3443) (see, e.g. Hawley, R. G., et al. (1994) Gene. Ther. 1, 136-138). L1210 cells underwent spinfection with the pMSCV-TK2 mutants-internal ribosomal entry site-YFP retrovirus with 2 μg/ml Polybrene (1000×g, 120 min, 37° C.). L1210 cells expressing various PRGs, (L1210-PRG) were FACS-sorted to ensure that each population had equivalent levels of PRG expression.
L1210 cells transduced with the indicated PET reporter genes (L1210-PRG) were seeded at a density of 500,000 cells/well in 24-well plates. 5 μCi of L-^18F-FMAU were added to the L1210-PRG cells simultaneously with the indicated amounts of D-thymidine (D-dT) at a final volume of 1 ml/well. After 1 h at 37° C., cells were harvested and washed four times with ice-cold PBS. Radioactivity was measured using a gamma counter.

[4] = test system: TK2-N93D-expressing L1210 cells; assay: L-18F-FMAU uptake assay, transduced L1210 cells (TK2-N93D); assay type: cell-based, murine
From the text: To overcome the negative feedback limitation of TK2, a point mutation-N93D, was engineered. The work done by Piskur and colleagues on the structurally related Drosophila melanogaster deoxyribonucleoside kinase (see, e.g. Welin, M., et al. FEBS J 272:3733-3742, 2005) led one to predict that the N93D mutation would reduce the feedback inhibition of TK2 by dTTP. This prediction was confirmed by a comparison between the wild type (WT) and the TK2-N93D mutant in a kinase assay in which increasing concentrations of dTTP were added to inhibit TK2 enzymatic activity (FIG. 8B). We then determined whether the enhanced resistance to feedback inhibition translates into improved TK2-N93D catalytic activity towards the L-[^18F]FMAU substrate. The murine leukemic cell line L1210 was engineered to express the WT and mutated PRG. PRG-expressing L1210 cell lines were sorted to similar levels of gene expression, using enhanced yellow fluorescent protein (eYFP) as a co-linked fluorescent marker. […] It was also examined whether the expression of TK2-N93D had detrimental effects on cellular physiology (criterion 4 for PRGs). […] In contrast, sr39tk overexpression induced a 4-fold increase in dTTP pools (FIG. 9C). […] These findings provide evidence that the utility of sr39tk is limited not only by its immunogenicity but also by its effects on normal cellular physiology.
The L1210 cell line (see, e.g. Jordheim, L. P., et al. (2004) Clin. Cancer Res. 10, 5614-5621) was a gift. Cells were cultured at 5% v/v CO2 and 37° C. in RPMI supplemented with 5% v/v FCS. […]
L1210 cells transduced with the indicated PET reporter genes (L1210-PRG) were seeded at a density of 500,000 cells/well in 24-well plates. […] Radioactivity was measured using a gamma counter.

[5] = test system: Baf-3 cells; assay: Test of mutant htk2 reporter genes in Baf-3 cells; assay type: cell-based
From the text: The sensitivity of the described mutant htk2 imaging reporter genes can be evaluated through cell culture assays and PET imaging in mouse tumor models. […] Further tests regarding the effect of expressing these reporter genes on various cells can be used to determine other potential targets. […] Several enhanced htk2 mutant reporter genes have been designed and tested. Though the examples herein describe different probes and investigate the L probes mainly in mice, other mammals and in particular, humans are also within the scope of the invention. Silico models can be used to derive additional enhanced mutants from human htk2.

Cc1cn([C@H]2O[C@@H](CO)[C@H](O)[C@H]2[18F])c(=O)[nH]c1=O [L-^18F-FMAU, 2′-deoxy-2′-^18F-5-methyl-1-β-L-arabinofuranosyluracil]
probe uptake in L1210 tumors ([1]; L-18F-FMAU, 3 h post-injection): 19.9±1.5 % injected dose/g
L-18F-FMAU uptake, higher than that of TK2-N93D-expressing cells ([1]; in vivo, FIG. 30C): 2.6 fold
in vivo L-18F-FMAU uptake compared with WT TK2-expressing tumors [2]: nearly double
in vivo L-18F-FMAU uptake compared with WT TK2-expressing tumors ([2]; listed as 18F-L-FMAU): two-fold increase
in vivo L-18F-FMAU uptake compared with WT TK2-expressing tumors ([2]; listed as L-[^18F]FMAU): improved accumulation
L-[18F]FMAU accumulation relative to tumors transduced with control (eYFP only) vector ([2]; 3 hrs post-injection): ~20 times
L-18F-FMAU uptake as percentage of the corresponding uptake for TK2-N93D/L109F [3]: 31%
decrease of L-18F-FMAU uptake [3]: 37%
increase in L-18F-FMAU uptake relative to cells expressing WT TK2 ([4]; 1 h uptake, FIG. 27C): 1.5 fold
L-[18F]FMAU accumulation compared to WT TK2 transduced cells ([4]; FIG. 8C): increased accumulation; also recorded: increased uptake
decrease of L-18F-FMAU uptake ([4]; in the presence of 5 μM D-dT): 75%
test of reporter system with probe [5]: successfully tested
